Laboratory results reported in patent publication US7112586B2, “Substituted diamine derivatives useful as motilin antagonists” (Ortho-McNeil Pharmaceutical, Inc., priority 2000, dated 2006).
Like-named read-outs stand apart in the source and are kept apart here.

Biological target: T1, Motilin Receptor (Oryctolagus cuniculus, UniProt G1T803)
T1 construct: The muscle tissue was homogenized in 10 volumes of 50 mM Tris-Cl; from tissue; host or cells: rabbit colon smooth muscle, crude membrane homogenate
T1 sequence (G1T803 1-400): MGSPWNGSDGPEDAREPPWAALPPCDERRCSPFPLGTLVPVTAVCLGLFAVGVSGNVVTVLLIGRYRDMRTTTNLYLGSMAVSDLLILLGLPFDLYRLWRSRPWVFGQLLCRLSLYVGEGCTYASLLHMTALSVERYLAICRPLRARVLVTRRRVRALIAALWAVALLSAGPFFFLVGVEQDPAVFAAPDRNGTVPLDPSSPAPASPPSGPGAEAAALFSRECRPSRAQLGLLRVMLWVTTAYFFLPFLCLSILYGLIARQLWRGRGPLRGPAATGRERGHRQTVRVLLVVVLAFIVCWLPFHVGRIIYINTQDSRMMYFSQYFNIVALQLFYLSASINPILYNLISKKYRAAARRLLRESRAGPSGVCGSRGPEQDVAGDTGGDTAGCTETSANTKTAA
Assay: Motilin receptor binding, rabbit colon membranes, 125I porcine motilin
Design: Rabbit Colon % Inh / inhibition / % Inh (Rabbit colon): dose or concentration left out as unconfirmed
Conditions: for inhibition: read-out: Rabbit Colon % Inh
Description: Rabbit colon was removed, dissected free from the mucosa and serosa, and diced into small pieces. The muscle tissue was homogenized in 10 volumes of 50 mM Tris-Cl, 10 mM MgCl2, 0.1 mg/ml bacitracin, and 0.25 mM Peflabloc, at pH 7.5 in a Polytron (29000 rpm, 4×15 seconds). The homogenate was centrifuged at 1000×g for 15 minutes and the supernatant discarded. The pellet was washed twice before being suspended in homogenizing buffer. The crude homogenate was resuspended through a 23 gauge needle before storing at −80° C. […] After 60 minutes at 30° C., the samples were cooled in ice, centrifuged in the cold at 13000×g for 1 minute. The pellet was washed twice with 1 ml of cold saline, the supernatant was aspirated, and the pellet at the bottom of the tube counted in a gamma counter. Non-specific binding was determined by the inclusion of 1 mM of unlabeled motilin. IC50 values were determined from Kaleidograph curves.

[1] = rabbit colon membranes, read-out: Rabbit Colon IC50

| SMILES | Rabbit Colon % Inh (rabbit colon membranes) [%] | also measured |
| --- | --- | --- |
| Cc1ccc(C(=O)N(CCCCC(=O)N(Cc2ccccc2)Cc2ccccc2)c2cccc(OCCN3CCOCC3)c2)cc1 [compound 28] | 13 |  |
| O=C(c1ccc(F)cc1)N(CC1CCCC(N2C(=O)c3ccccc3C2=O)C1)c1cccc(OCCN2CCOCC2)c1 (stereo not shown) [compound 257] | 0 |  |
| CCN(Cc1ccc(C)cc1)C(=O)CCCN(C(=O)Nc1ccccc1)c1cccc(OCCN2CCOCC2)c1 [compound 30] | 17 |  |
| O=C(Nc1ccccc1)N(CC1CCCC(N(Cc2ccccc2)C(=O)c2cccc([N+](=O)[O-])c2)C1)c1cccc(OCCN2CCOCC2)c1 (stereo not shown) [compound 45] |  | inhibition (rabbit colon membranes): 67%; IC50 [1]: 1160 nM |
| O=C(N[C@@H](Cc1ccccc1)C(=O)N(Cc1ccc(F)cc1)c1cccc(OCCN2CCOCC2)c1)c1ccc(-c2ccccc2)cc1 [compound 132] | 10 |  |
| Cc1ccc(S(=O)(=O)N(CCCC(=O)N(CCc2ccccc2)Cc2ccccc2)c2cccc(OCCN3CCOCC3)c2)cc1 [compound 2] | 9 |  |
| O=C(CCCN(C(=O)c1ccc(F)cc1)c1cccc(OCCN2CCOCC2)c1)N(CCc1ccccc1)Cc1ccccc1 [compound 4] |  | IC50: 690 nM; inhibition: 75% |
| O=C(c1ccc(F)cc1)N(CC1CCCC(N2C(=O)c3ccc4ccccc4c3C2=O)C1)c1cccc(OCCN2CCOCC2)c1 (stereo not shown) [compound 252] | 15 |  |
| O=C(Nc1ccccc1)N(CC1CCCC(N(Cc2ccccc2)C(=O)C(Cl)(Cl)Cl)C1)c1cccc(OCCN2CCOCC2)c1 (stereo not shown) [compound 67] |  | inhibition (rabbit colon membranes): 75%; IC50 [1]: 957 nM |
| O=C(c1ccc(F)cc1)N(CC1CCCC(NC(=O)C(Cl)(Cl)Cl)C1)c1cccc(OCCN2CCOCC2)c1 (stereo not shown) [compound 91] | 36 |  |
| COc1ccc(CC(=O)N(Cc2cccc(Cl)c2)C2CCCC(CN(C(=O)c3ccc(F)cc3)c3cccc(OCCN4CCOCC4)c3)C2)cc1OC (stereo not shown) [compound 245] | 40 |  |
| CCN(Cc1ccc(C)cc1)C(=O)CCCCN(C(=O)c1ccc(C)cc1)c1cccc(OCCN2CCOCC2)c1 [compound 36] | 32 |  |
| O=C(c1ccc(F)cc1)N(CC1CCCC(N2C(=O)c3cc(Cl)c(Cl)cc3C2=O)C1)c1cccc(OCCN2CCOCC2)c1 (stereo not shown) [compound 255] | 22 |  |
| CC(CC(=O)N(CCc1ccccc1)Cc1ccccc1)CC(=O)N(Cc1ccc(F)cc1)c1cccc(OCCN2CCOCC2)c1 (stereo not shown) [compound 189] |  | inhibition (rabbit colon membranes): 70%; IC50 [1]: 300 nM |
| O=C([C@H](Cc1ccccc1)NC(=O)C(Cl)(Cl)Cl)N(Cc1ccc(F)cc1)c1cccc(OCCN2CCOCC2)c1 [compound 131] | 19 |  |
| O=C(Nc1cccc(OCCN2CCOCC2)c1)C1=C(C(=O)N(CCc2ccccc2)Cc2ccccc2)CCC1 [compound 156] | 18 |  |
| O=C(CCCC(=O)N(Cc1ccc(F)cc1)c1cccc(OCCN2CCOCC2)c1)N(CCc1ccccc1)Cc1ccccc1 [compound 129] |  | inhibition (rabbit colon membranes): 90%; IC50 [1]: 58 nM |
| CCN(CC)CCOc1cccc(N(CC2CCCC(N(Cc3cccc(Cl)c3)C(=O)C(C)(C)C)C2)C(=O)c2ccc(F)cc2)c1 (stereo not shown) [compound 233] |  | inhibition (rabbit colon membranes): 89%; IC50 [1]: 170 nM |
| CCN(Cc1ccc(C)cc1)C(=O)CCCN(C(=O)c1ccc(C)cc1)c1cccc(OCCN2CCOCC2)c1 [compound 32] | 12 |  |
| O=C(c1ccc(F)cc1)N(CC1CCCC(N(Cc2cccc(Cl)c2)C(=O)C(Cl)(Cl)Cl)C1)c1cccc(OCCN2CCCC2)c1 (stereo not shown) [compound 212] |  | inhibition (rabbit colon membranes): 89%; IC50 [1]: 58 nM |
| COc1cccc(CC(=O)N[C@@H](Cc2ccccc2)C(=O)N(Cc2ccc(F)cc2)c2cccc(OCCN3CCOCC3)c2)c1 [compound 134] | 0 |  |
| O=C(Nc1ccccc1)N(CC1CCCC(N(Cc2cccc(Cl)c2)C(=O)C(Cl)(Cl)Cl)C1)c1cccc(OCCN2CCCC2)c1 (stereo not shown) [compound 223] |  | inhibition (rabbit colon membranes): 100%; IC50 [1]: 41 nM |
| CN(C)CCCOc1cccc(N(Cc2ccc(F)cc2)C(=O)CCCC(=O)N(CCc2ccccc2)Cc2ccccc2)c1 [compound 187] |  | inhibition (rabbit colon membranes): 100%; IC50 [1]: 229 nM |
| O=C(NCCc1ccccc1)c1cccc(CN(C(=O)c2ccc(F)cc2)c2cccc(OCCN3CCOCC3)c2)c1 [compound 138] |  | inhibition (rabbit colon membranes): 36% |
| O=C(Nc1ccccc1)N(CC1CCCC(NC(=O)C(Cl)(Cl)Cl)C1)c1cccc(OCCN2CCOCC2)c1 (stereo not shown) [compound 72] |  | inhibition (rabbit colon membranes): 40% |
| CC(C)(C)CN(Cc1ccccc1)C(=O)c1cccc(CN(C(=O)c2ccc(F)cc2)c2cccc(OCCN3CCOCC3)c2)c1 [compound 140] | 45 |  |
| Cc1ccc2c(c1)C(=O)N(C1CCCC(CN(C(=O)c3ccc(F)cc3)c3cccc(OCCN4CCOCC4)c3)C1)C2=O (stereo not shown) [compound 256] | 27 |  |
| CCN(Cc1ccc(C)cc1)C(=O)CCCCN(C(=O)c1ccc(F)cc1)c1cccc(OCCN2CCOCC2)c1 [compound 37] | 11 |  |

Further lines, with some results ahead:

| Rabbit Colon % Inh (rabbit colon membranes) [%] | SMILES | also measured |
| --- | --- | --- |
| 8 | O=C(c1ccc(F)cc1)N(CC1CCCC(N(Cc2ccccc2)S(=O)(=O)c2ccc3ccccc3c2)C1)c1cccc(OCCN2CCOCC2)c1 (stereo not shown) [compound 123] |  |
| 56 | O=C(NC1CCCC(CN(C(=O)Nc2ccccc2)c2cccc(OCCN3CCOCC3)c2)C1)C(c1ccccc1)c1ccccc1 (stereo not shown) [compound 81] |  |
| 18 | CCN(Cc1ccccc1)C(=O)CCCN(C(=O)Nc1ccccc1)c1cccc(OCCN2CCOCC2)c1 [compound 8] |  |
| 14 | COc1cccc(CC(=O)N(Cc2cccc(Cl)c2)C2CCCC(CN(C(=O)c3ccc(F)cc3)c3cccc(OCCN4CCOCC4)c3)C2)c1 (stereo not shown) [compound 241] |  |
| 73 | CC(C)(C)CC(=O)N(Cc1cccc(Cl)c1)C1CCCC(CN(C(=O)c2ccc(F)cc2)c2cccc(OCCN3CCOCC3)c2)C1 (stereo not shown) [compound 246] |  |
| 26 | O=C(c1ccc(F)cc1)N(CC1CCCC(N(Cc2ccccc2)C(=O)CCc2ccccc2)C1)c1cccc(OCCN2CCOCC2)c1 (stereo not shown) [compound 115] |  |
| 42 | O=C(c1ccc(F)cc1)N(CC1CCCC(N(Cc2cccc(Cl)c2)C(=O)Cc2ccccc2)C1)c1cccc(OCCN2CCOCC2)c1 (stereo not shown) [compound 244] |  |
| 48 | O=C(Nc1ccccc1)N(CC1CCCC(N(Cc2cccc(Cl)c2)C(=O)c2cccc([N+](=O)[O-])c2)C1)c1cccc(OCCN2CCOCC2)c1 (stereo not shown) [compound 55] |  |
| 16 | O=C(Nc1ccccc1)N(CC1CCCC(N(Cc2cccc(Cl)c2)C(=O)c2cccc(O)c2)C1)c1cccc(OCCN2CCOCC2)c1 (stereo not shown) [compound 86] |  |
| 4 | O=C(Nc1ccccc1)N(CC1CCCC(N(Cc2ccccc2)C(=O)c2ccc3ccccc3c2)C1)c1cccc(OCCN2CCOCC2)c1 (stereo not shown) [compound 44] |  |
| 47 | O=C(c1ccc(F)cc1)N(CC1CCCC(N(Cc2cccc(Cl)c2)C(=O)c2cccc([N+](=O)[O-])c2)C1)c1cccc(OCCN2CCOCC2)c1 (stereo not shown) [compound 102] |  |
| 32 | O=C(Nc1ccccc1)N(CC1CCCC(N(Cc2ccccc2)C(=O)C(c2ccccc2)c2ccccc2)C1)c1cccc(OCCN2CCOCC2)c1 (stereo not shown) [compound 46] |  |
| 25 | O=C(c1ccc(F)cc1)N(CC1CCCC(N(Cc2ccccc2)C(=O)Nc2ccccc2)C1)c1cccc(OCCN2CCOCC2)c1 (stereo not shown) [compound 125] |  |
| 43 | O=C(Nc1ccccc1)N(CC1CCCC(NS(=O)(=O)c2ccc3ccccc3c2)C1)c1cccc(OCCN2CCOCC2)c1 (stereo not shown) [compound 71] |  |
| 26 | COc1cccc(C(=O)NC2CCCC(CN(C(=O)Nc3ccccc3)c3cccc(OCCN4CCOCC4)c3)C2)c1 (stereo not shown) [compound 76] |  |
